Results reported in article PMC10065799, “High-throughput profiling of sequence recognition by tyrosine kinases and SH2 domains using bacterial peptide display” (eLife, 2023).

Experiments:
c-Src kinase domain = c-Src kinase domain (Homo sapiens, UniProt P12931); assay: pTyr-Var library bacterial peptide display kinase screen (enrichment scores); type: biochemical
Fyn kinase domain = assay: as above; type: biochemical, human
Hck kinase domain = assay: as above; type: biochemical, human; settings: enrichment score
c-Abl kinase domain = molecular target: T1, c-Abl kinase domain (Mus musculus, UniProt P00520); assay: as above; type: biochemical
T1 sequence (P00520 242-493 limits assumed): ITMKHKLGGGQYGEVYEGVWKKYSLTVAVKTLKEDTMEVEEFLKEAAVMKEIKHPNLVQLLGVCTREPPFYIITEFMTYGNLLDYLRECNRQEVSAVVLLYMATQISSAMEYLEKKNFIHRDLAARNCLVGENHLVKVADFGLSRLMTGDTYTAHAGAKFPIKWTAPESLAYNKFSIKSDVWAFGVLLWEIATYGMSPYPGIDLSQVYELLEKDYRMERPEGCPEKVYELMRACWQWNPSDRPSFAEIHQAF

Jak2 = assay: as above; type: biochemical, human
AncSZ kinase domain = assay: as above; type: biochemical
Fer kinase domain = assay: as above; type: biochemical, mouse
Fes = assay: as above; type: biochemical; settings: mean of log2 of enrichment over R1-R6
FGFR1 kinase domain = assay: as above; type: biochemical, human
FGFR3 kinase domain = assay: as above; type: biochemical, human
EPHB1 kinase domain = assay: as above; type: biochemical, human
EPHB2 kinase domain = assay: as above; type: biochemical, human
MERTK kinase domain = assay: as above; type: biochemical, human
[1] = test system: 4G10 Platinum pan-phosphotyrosine antibody; assay: Phosphorylated pTyr-Var library selection with biotinylated pan-phosphotyrosine antibody; type: binding, mouse; settings: enrichment score, sheet SH2-vs-peptide
c-Src SH2 domain = c-Src SH2 domain (Homo sapiens, UniProt P12931); assay: pTyr-Var library SH2 domain screen with SH2-dynabeads (enrichment scores); settings: sheet c-Src
SHP2 C-SH2 domain = assay: as above
Grb2 SH2 domain = assay: as above
[2] = mean of log2 of enrichment over R1-R4
[3] = pTyr-Var library, enrichment score, replicate 1
[4] = pTyr-Var library, enrichment score, replicate 3
[5] = pTyr-Var library, enrichment score, replicate 4
[6] = mean of log2 enrichment of reference peptide, n = 5
[7] = pTyr-Var library, reference peptide enrichment, mean of n = 5
[8] = mean of log2 enrichment of reference peptide, n = 4
[9] = pTyr-Var library, reference peptide enrichment, mean of n = 4

Sequence: LRVGFYESDVM [A2M_Y708]
- c-Src mean of log2(enrichment) (c-Src kinase domain; [2]): 0.391
- c-Src enrich. R1 (c-Src kinase domain; [3]): 1.08
- c-Src enrich. R3 (c-Src kinase domain; [4]): 1.298
- c-Src enrich. R4 (c-Src kinase domain; [5]): 1.223
- Fyn mean of log2(enrichment) (Fyn kinase domain; [2]): -0.1485
- Fyn enrich. R1 (Fyn kinase domain; [3]): 1.939
- Fyn enrich. R3 (Fyn kinase domain; [4]): 1.639
- Fyn enrich. R4 (Fyn kinase domain; [5]): 0.1487
- Hck enrich. R1 (Hck kinase domain; replicate 1): 1.102
- Hck enrich. R3 (Hck kinase domain; replicate 3): 1.0148
- Hck enrich. R4 (Hck kinase domain; replicate 4): 0.9933
- c-Abl mean of log2(enrichment) (c-Abl kinase domain; [2]): 0.8901
- c-Abl enrich. R1 (c-Abl kinase domain; [3]): 1.339
- c-Abl enrich. R3 (c-Abl kinase domain; [4]): 1.7654
- c-Abl enrich. R4 (c-Abl kinase domain; [5]): 2.061
- Jak2 mean of log2(enrichment) (Jak2; mean of log2 of enrichment over R1-R3): 0.9825
- Jak2 enrichment (mean) (Jak2; pTyr-Var library, enrichment score, mean of replicates R1-R3): 2.035
- Jak2 enrich. R1 (Jak2; [3]): 2.166
- Jak2 enrich. R3 (Jak2; [4]): 1.407
- AncSZ mean of log2(enrichment) (AncSZ kinase domain; mean of log2 of enrichment over R1-R5): 1.515
- AncSZ enrich. R3 (AncSZ kinase domain; [4]): 3.27
- AncSZ enrich. R4 (AncSZ kinase domain; [5]): 3.639
- AncSZ enrich. R5 (AncSZ kinase domain; pTyr-Var library, enrichment score, replicate 5): 3.918
- Fer mean of log2(enrichment) (Fer kinase domain; [2]): 0.6409
- Fer enrich. R1 (Fer kinase domain; [3]): 1.74
- Fer enrich. R3 (Fer kinase domain; [4]): 2.063
- Fer enrich. R4 (Fer kinase domain; [5]): 1.716
- Fes mean of log2(enrichment) (Fes): 1.487
- mean of log2(reference) (FGFR1 kinase domain; [6]): 0.2144
- ref. mean (FGFR1 kinase domain; [7]): 1.392
- mean of log2(reference) (FGFR3 kinase domain; [6]): 1.27
- ref. mean (FGFR3 kinase domain; [7]): 2.887
- mean of log2(reference) (EPHB1 kinase domain; [8]): 0.89
- EPHB1 enrichment (mean) (EPHB1 kinase domain; pTyr-Var library, enrichment score, mean of replicates): 1.865
- ref. mean (EPHB1 kinase domain; [9]): 1.865
- mean of log2(reference) (EPHB2 kinase domain; [8]): -0.3867
- ref. mean (EPHB2 kinase domain; [9]): 0.9336
- mean of log2(reference) (MERTK kinase domain; [8]): 1.359
- ref. mean (MERTK kinase domain; [9]): 2.61
- 4G10 (mean) [1]: 1.415
- mean of log2(reference) (c-Src SH2 domain; mean of log2 enrichment of reference peptide, R1-R3): 2.001
- ref. mean (c-Src SH2 domain; reference peptide, mean of R1-R3): 4.137
- mean of log2(reference) (SHP2 C-SH2 domain; SHP2-C SH2, mean of log2 enrichment of reference, R1-R3): 0.01184
- ref. mean (SHP2 C-SH2 domain; reference peptide enrichment score, SHP2-C SH2, mean of R1-R3): 1.018
- mean of log2(reference) (Grb2 SH2 domain; Grb2 SH2, mean of log2 enrichment of reference, R1-R3): -0.1031
- ref. mean (Grb2 SH2 domain; reference peptide enrichment score, Grb2 SH2, mean of R1-R3): 0.9341
